This passage reports ring closure, isolated yield results from patent publication US20240376154A1, “BIS-INTERCALATING PEPTIDES, CONJUGATES AND METHODS OF USE” (ZYMEWORKS BC INC., priority 2023, published 2024).

The conditions of this data set: amide bond; 32-membered ring.
“Di-tert-butyl ((7R,8R,11S,19aS,26R,27R,30S,38aS)-11,30-diisopropyl-8,12,15,27,31,34-hexamethyl-6,10,13,16,19,25,29,32,35,38-decaoxodotriacontahydro-2H,6H,10H,25H-dipyrido[2,1-b1: 2′,1′-l][1,17]dioxa[4,7,10,13,20,23,26,29]octaazacyclodotriacontine-7,26-diyl)dicarbamate” registered a ring closure, isolated yield of 50%.

“Di-tert-butyl ((7R,11S,19aS,26R,30S,38aS)-11,30-diisopropyl-9,12,15,28,31,34-hexamethyl-6,10,13,16,19,25,29,32,35,38-decaoxohexatriacontahydro-2H,6H-dipyrido[1,2-a:1′,2′-q][1,4,7,10,13,17,20,23,26,29]decaazacyclodotriacontine-7,26-diyl)dicarbamate”: the ring closure, isolated yield was found to be 65%.

Substance “Di-tert-butyl ((7R,11S,19aS,26R,30S,38aS)-11,30-diisopropyl-12,15,31,34-tetramethyl-6,10,13,16,19,25,29,32,35,38-decaoxotetratriacontahydro-2H,6H,10H-dipyrido[2,1-b1: 2′,1′-l][1]oxa[4,7,10,13,17,20,23,26,29]nonaazacyclodotriacontine-7,26-diyl)dicarbamate” came in with a ring closure, isolated yield of 86%.

Substance “Dibenzyl ((7R,11S,19aS,26R,30S,38aS)-11-((R)-1-(tert-butoxy)ethyl)-30-isopropyl-12,15,31,34-tetramethyl-6,10,13,16,19,25,29,32,35,38-decaoxohexatriacontahydro-2H,6H-dipyrido[1,2-a:1′,2′-q][1,4,7,10,13,17,20,23,26,29]decaazacyclodotriacontine-7,26-diyl)dicarbamate” registered a ring closure, isolated yield of 91%.

Substance “Tert-butyl (4-nitrobenzyl) ((7R,11R,19aS,26R,30S,38aS)-11-((S)-sec-butyl)-30-isopropyl-12,15,31,34-tetramethyl-6,13,16,19,25,29,32,35,38-nonaoxotetratriacontahydro-2H,6H,10H-dipyrido[2,1-b1: 2′,1′-l][1]oxa[4,7,10,13,17,20,23,26,29]nonaazacyclodotriacontine-7,26-diyl)dicarbamate” returned a ring closure, isolated yield of 72%.

In turn, “Tert-butyl (4-nitrobenzyl) ((7R,11S,19aS,26R,30S,38aS)-11,30-diisopropyl-12,15,31,34-tetramethyl-6,10,13,16,19,25,32,35,38-nonaoxodotriacontahydro-2H,6H,10H,25H-dipyrido[2,1-b1: 2′,1′-l][1,17]dioxa[4,7,10,13,20,23,26,29]octaazacyclodotriacontine-7,26-diyl)dicarbamate” had a ring closure, isolated yield of 50%.

In turn, “Tert-butyl (4-nitrobenzyl) ((7R,11S,19aS,26R,30S,38aS)-11,30-diisopropyl-12,15,31,34-tetramethyl-6,13,16,19,25,29,32,35,38-nonaoxotetratriacontahydro-2H,6H,10H-dipyrido[2,1-b1: 2′,1′-l][1]oxa[4,7,10,13,17,20,23,26,29]nonaazacyclodotriacontine-7,26-diyl)dicarbamate” displayed a ring closure, isolated yield of 68%.

In the case of “di-tert-butyl ((7R,11S,19aS,26R,30S,38aS)-11,30-diisopropyl-12,15,31,34-tetramethyl-6,10,13,16,19,25,29,32,35,38-decaoxohexatriacontahydro-2H,6H-dipyrido[1,2-a:1′,2′-q][1,4,7,10,13,17,20,23,26,29]decaazacyclodotriacontine-7,26-diyl)dicarbamate”, the ring closure, isolated yield amounted to 34%.
